Measurements published in BindingDB's records for doi:10.1021/acs.jmedchem.0c01488 (West China Hospital of Sichuan University, 2020).

How the values were obtained:
[1] = Inhibition of JAK2 V617F mutant in mouse BaF3 cells assessed as reduction in cell viability incubated for 72 hrs by MTT assay
[2] = Inhibition of FLT3 ITD mutant in human MOLM13 cells assessed as reduction in cell viability incubated for 72 hrs by MTT assay
[3] = Inhibition of JAK2 V617F mutant in human SET-2 cells assessed as reduction in cell viability incubated for 72 hrs by MTT assay

Structure (SMILES): Cc1ccc(C(=O)/C=C/C(=O)N2CCc3cc(Nc4ncc(C)c(-c5cnn(C(C)C)c5)n4)ccc3C2)cc1
- IC50 [1]: 13 nM
- IC50 [2]: 758 nM
- IC50 [3]: 15 nM

Structure (SMILES): CCCNC(=O)N1CCc2cc(Nc3ncc(C)c(-c4cnn(C(C)C)c4)n3)ccc2C1
- IC50 [1]: 1210 nM
- IC50 [2]: 2070 nM
- IC50 [3]: 1760 nM

Structure (SMILES): Cc1cnc(Nc2ccc3c(c2)CCN(CCCO)C3)nc1-c1cnn(C(C)C)c1
- IC50 [1]: 365 nM
- IC50 [2]: 1320 nM
- IC50 [3]: 394 nM

Structure (SMILES): Cc1cnc(Nc2ccc3c(c2)CCN(CCCCCO)C3)nc1-c1cnn(C(C)C)c1
- IC50 [2]: 965 nM

Structure (SMILES): Cc1ccc(C(=O)/C=C/C(=O)N2CCc3ccc(Nc4ncc(C)c(-c5cnn(C(C)C)c5)n4)cc3C2)cc1
- IC50 [2]: 629 nM

Structure (SMILES): Cc1cnc(Nc2ccc3c(c2)CN(CC#N)CC3)nc1-c1cnn(C(C)C)c1
- IC50 [1]: 76 nM
- IC50 [2]: 425 nM
- IC50 [3]: 95 nM

Structure (SMILES): CC(C)n1cc(-c2nc(Nc3ccc4c(c3)CCN(CCO)C4)ncc2F)cn1
- IC50 [1]: 760 nM
- IC50 [2]: 547 nM
- IC50 [3]: 651 nM

Structure (SMILES): Cc1cnc(Nc2ccc3c(c2)CN(C(=O)/C=C/CN(C)C)CC3)nc1-c1cnn(C(C)C)c1
- IC50 [1]: 25 nM
- IC50 [2]: 456 nM
- IC50 [3]: 15 nM

Structure (SMILES): Cc1cnc(Nc2ccc3c(c2)CCN(C/C=C/C(=O)O)C3)nc1-c1cnn(C(C)C)c1
- IC50 [1]: 128 nM
- IC50 [2]: 845 nM
- IC50 [3]: 334 nM

Structure (SMILES): Cc1cnc(Nc2ccc3c(c2)CCN(C(=O)CCCN(C)C)C3)nc1-c1cnn(C(C)C)c1
- IC50 [1]: 2480 nM
- IC50 [2]: 1480 nM
- IC50 [3]: 985 nM

Structure (SMILES): Cc1cnc(Nc2ccc3c(c2)CCN(CCCCO)C3)nc1-c1cnn(C(C)C)c1
- IC50 [1]: 234 nM
- IC50 [2]: 879 nM
- IC50 [3]: 268 nM

Structure (SMILES): C=CCN1CCc2cc(Nc3ncc(C)c(-c4cnn(C(C)C)c4)n3)ccc2C1
- IC50 [1]: 452 nM
- IC50 [2]: 868 nM
- IC50 [3]: 288 nM

Structure (SMILES): CCCCN1CCc2cc(Nc3ncc(C)c(-c4cnn(C(C)C)c4)n3)ccc2C1
- IC50 [1]: 640 nM
- IC50 [2]: 754 nM
- IC50 [3]: 592 nM

Structure (SMILES): Cc1cnc(Nc2ccc(N3CCC(N(C)CCO)CC3)c(F)c2)nc1-c1cnn(C(C)C)c1
- IC50 [2]: 72 nM

Structure (SMILES): Cc1cnc(Nc2ccc3c(c2)CCN(C(=O)Nc2cccc(Cl)c2)C3)nc1-c1cnn(C(C)C)c1
- IC50 [1]: 2180 nM
- IC50 [2]: 2070 nM
- IC50 [3]: 3450 nM

Structure (SMILES): C#CCN1CCc2cc(Nc3ncc(C)c(-c4cnn(C(C)C)c4)n3)ccc2C1
- IC50 [2]: 1480 nM

Structure (SMILES): CC(C)n1cc(-c2nc(Nc3ccc4c(c3)CCN(CCCO)C4)ncc2F)cn1
- IC50 [1]: 392 nM
- IC50 [2]: 453 nM
- IC50 [3]: 311 nM

Structure (SMILES): CC#CCN1CCc2cc(Nc3ncc(C)c(-c4cnn(C(C)C)c4)n3)ccc2C1
- IC50 [1]: 908 nM
- IC50 [2]: 1560 nM
- IC50 [3]: 794 nM

Structure (SMILES): CCNC(=O)N1CCc2cc(Nc3ncc(C)c(-c4cnn(C(C)C)c4)n3)ccc2C1
- IC50 [1]: 1890 nM
- IC50 [2]: 1070 nM
- IC50 [3]: 2350 nM

Structure (SMILES): Cc1cnc(Nc2cc3c(cc2F)CN(CCO)CC3)nc1-c1cnn(C(C)C)c1
- IC50 [1]: 2570 nM
- IC50 [2]: > 5000 nM
- IC50 [3]: 4460 nM

Structure (SMILES): Cc1cnc(Nc2ccc3c(c2)CCN(C/C=C/C(=O)NCCN2CCCCC2)C3)nc1-c1cnn(C(C)C)c1
- IC50 [1]: 1200 nM
- IC50 [2]: 2090 nM
- IC50 [3]: 554 nM

Structure (SMILES): Cc1cnc(Nc2ccc3c(c2)CN(CCO)C3)nc1-c1cnn(C(C)C)c1
- IC50 [2]: 1780 nM

Structure (SMILES): Cc1cnc(Nc2ccc3c(c2)CCN(CCC#N)C3)nc1-c1cnn(C(C)C)c1
- IC50 [1]: 177 nM
- IC50 [2]: 356 nM
- IC50 [3]: 296 nM

Structure (SMILES): Cc1cnc(Nc2ccc3c(c2)CCN3CCO)nc1-c1cnn(C(C)C)c1
- IC50 [1]: 4390 nM
- IC50 [2]: 2060 nM
- IC50 [3]: 3790 nM

Structure (SMILES): Cc1cnc(Nc2ccc3c(c2)CCN(C(=O)/C=C/CN(C)C)C3)nc1-c1cnn(C(C)C)c1
- IC50 [2]: 880 nM
- IC50 [3]: 12 nM

Structure (SMILES): CC(C)n1cc(-c2nc(Nc3ccc4c(c3)CCN(CCCCO)C4)ncc2F)cn1
- IC50 [1]: 445 nM
- IC50 [2]: 455 nM
- IC50 [3]: 604 nM

Structure (SMILES): Cc1cnc(Nc2ccc3c(c2)CCN(C/C=C/C(=O)NC(C)(C)C)C3)nc1-c1cnn(C(C)C)c1
- IC50 [1]: 145 nM
- IC50 [2]: 1060 nM
- IC50 [3]: 612 nM

Structure (SMILES): Cc1cnc(Nc2ccc3c(c2)CN(C(=O)/C=C/C(=O)c2ccccc2)CC3)nc1-c1cnn(C(C)C)c1
- IC50 [1]: 61 nM
- IC50 [2]: 535 nM
- IC50 [3]: 43 nM

Structure (SMILES): COC(=O)/C=C/CN1CCc2cc(Nc3ncc(C)c(-c4cnn(C(C)C)c4)n3)ccc2C1
- IC50 [1]: 10 nM
- IC50 [2]: 497 nM
- IC50 [3]: 14 nM

Structure (SMILES): Cc1cnc(Nc2ccc3c(c2)CCN(CC#N)C3)nc1-c1cnn(C(C)C)c1
- IC50 [2]: 647 nM
- IC50 [3]: 73 nM

Structure (SMILES): Cc1cnc(Nc2ccc3c(c2)CCN(C(=O)/C=C/C(=O)c2ccccc2)C3)nc1-c1cnn(C(C)C)c1
- IC50 [2]: 458 nM
- IC50 [3]: 52 nM

Structure (SMILES): Cc1cnc(Nc2ccc3c(c2)CCN(CCO)C3)nc1-c1cnn(C(C)C)c1
- IC50 [1]: 431 nM
- IC50 [2]: 1260 nM
- IC50 [3]: 323 nM

Structure (SMILES): CC(C)n1cc(-c2nc(Nc3ccc4c(c3)CCN(C(=O)CO)C4)ncc2F)cn1
- IC50 [1]: 679 nM
- IC50 [2]: 453 nM
- IC50 [3]: 574 nM

Structure (SMILES): CC(C)n1cc(-c2nc(Nc3ccc4c(c3)CCN(CCCCCO)C4)ncc2F)cn1
- IC50 [1]: 420 nM
- IC50 [2]: 353 nM
- IC50 [3]: 492 nM

Structure (SMILES): CCN(CC)C(=O)/C=C/CN1CCc2cc(Nc3ncc(C)c(-c4cnn(C(C)C)c4)n3)ccc2C1
- IC50 [1]: 287 nM
- IC50 [2]: 656 nM
- IC50 [3]: 329 nM

Structure (SMILES): Cc1cnc(Nc2ccc3c(n2)CCN(CCCO)C3)nc1-c1cnn(C(C)C)c1
- IC50 [1]: 1430 nM
- IC50 [2]: 2570 nM
- IC50 [3]: 2180 nM

Structure (SMILES): COC(=O)/C=C/CN1CCc2ccc(Nc3ncc(C)c(-c4cnn(C(C)C)c4)n3)cc2C1
- IC50 [1]: 120 nM
- IC50 [2]: 430 nM
- IC50 [3]: 72 nM

Structure (SMILES): Cc1ccc(C(=O)CCC(=O)N2CCc3cc(Nc4ncc(C)c(-c5cnn(C(C)C)c5)n4)ccc3C2)cc1
- IC50 [1]: 784 nM
- IC50 [2]: 1060 nM
- IC50 [3]: 626 nM

Structure (SMILES): COC(=O)CCCN1CCc2cc(Nc3ncc(C)c(-c4cnn(C(C)C)c4)n3)ccc2C1
- IC50 [1]: 938 nM
- IC50 [2]: 1290 nM
- IC50 [3]: 1040 nM

Structure (SMILES): CCOCCN1CCc2cc(Nc3ncc(C)c(-c4cnn(C(C)C)c4)n3)ccc2C1
- IC50 [1]: 302 nM
- IC50 [2]: 568 nM
- IC50 [3]: 339 nM
